Key:
[1] = system: green peach aphid (Myzus persicae Sulzer); test: Test B: nymph production by green peach aphid after 24 hours exposure on treated radish plants; type: in vivo; conditions: for Living (%) / On plant (%): 1 DAT; for Living (%): all aphids alive 24 h after treatment; for On plant (%): all aphids on the treated plant
Procedure: For evaluating reproductive performance effects on green peach aphid (Myzus persicae Sulzer), each test unit consisted of a radish plant grown in a 6 cm×6 cm square pot infested with a mixed population (nymphs and adults) of green peach aphids from a laboratory-reared culture. Each plant was infested with about 100 aphids. Test solutions were prepared and sprayed on the test plants (2 plants per treatment) as described for TEST A. Treatments included Compound 1 at 100 and 500 ppm, Compound 2 at 4 and 6 ppm, and a control without test compound.
Aphids were kept on the treated plants for 24 hours, and then only adult aphids staying on the treated plant were transferred to untreated radish plants grown singly in a 6 cm×6 cm square pots. One test unit or one replicate consisted of a single adult aphid on a radish plant in a pot. The number of nymphs in each replicate was counted 4 and 6 days after treatment. At the higher concentration of each test compound a total of 45 replicates were used, and at the lower concentration of each test compound a total of 30 replicates were used. In addition, prior to transferring aphids singly to the untreated radish plants one day after treatment (1 DAT), the total number of aphids living and those remaining on the treated plant were counted.
The results are listed in Table B. Square-root transformation was done on the number of nymphs produced per adult (female) aphid, and the data were analyzed using analysis of variance (ANOVA) and Fisher's Least Significant Difference (LSD) tests for separation of means.

housefly = test: Dose-finding test for sub-lethal dose on housefly; type: in vivo, Musca domestica; conditions: probit analysis extrapolation from preliminary dose-response curves at 50, 100, 500 and 1000 ppm
Text: (§1) The sub-lethal concentrations or doses used in the various tests for the specific pest species and populations tested in the context of the present invention were estimated from multiple-rate, dose-finding tests to determine the control rates and activity break rates. […] Therefore, depending on the target pest species, either the LC50 or a suitable concentration between LC50 and LC20 was selected as the sub-lethal dose. The specific procedures used to select the respective doses are described in each Test.
(§2) The LC20 sub-lethal dose of Compound 2 on the housefly was estimated to be 2 ppm using probit analysis extrapolation based on the preliminary dose-response curves obtained at concentrations of 50, 100, 500 and 1000 ppm. Two treatments consisted of Compound 2 at 2 ppm and a control without test compound. Each treatment had 10 replicates.

[2] = system: housefly, Musca domestica (L.); test: Test A: reproductive performance of adult houseflies after spray at sub-lethal concentration; type: in vivo; conditions: 2 ppm spray of adults; totaled on the 8th day after treatment
Text: For evaluating housefly, Musca domestica (L.), each test unit consisted of a pair of virgin adult female and male houseflies of similar age (±1 day). To obtain the adult flies used in the study, pupae of approximately the same age (±1 day) were separated by sex, and placed in separate containers until adults emerged.
as §2
After emergence, the adult houseflies were placed in a meshed cage and were sprayed with test solutions using a belt sprayer. Test solutions were applied using a compressed air-propelled (moving) belt sprayer equipped with an 8001E Tee Jet flat fan spray nozzle. The nozzles were positioned at about 20 cm above the test unit, and calibrated at 276 kPa to deliver volumes equivalent to 500 L/ha. […]
Observations of the number of eggs laid per adult female were made daily for 7 days. The cotton wicks containing eggs were removed daily and counted, and then kept in a growth chamber at 26° C., 75% relative humidity and 16 hours of light per day to allow egg hatching and emergence of neonates. […]

diamondback moth = test: Previous laboratory studies of diamondback moth mortality; type: in vivo; conditions: Plutella xylostella, read-out: mortality of the diamondback moth (LC20)
Text: as §1
(§3) In addition, a control without test compound was included.

[3] = system: diamondback moth (Plutella xylostella); test: Test G: number of eggs (fecundity) of adult diamondback moth; type: in vivo; conditions: 10 ppm, control itself gave very few eggs
Text: For evaluating the reproductive performance effects on diamondback moth (Plutella xylostella), a minimum of 120 larvae of diamondback moth of each sex were used. Male and female individuals of late instar larvae were separated and caged in individual containers containing Chinese kale. Male diamondback moths were identified by a white dot on the abdomen at the late instar larval stage. When pupae emerged, each pupa was caged separately until it emerged as adult.
as §3
Groups of 40 newly emerged (<24 hours) moths of the same sex were placed inside a meshed cage. The caged adult moths were then sprayed with the test solution, using a CO2 backpack sprayer at 500 L/Ha. For the control treatment, the adults were sprayed with water at a similar spray volume. The groups of treated individuals were then transferred into a clean container with a source of adult diet (i.e. a cotton wick soaked in 10% sucrose solution). Separate containers were used for different groups of treated insects. One day after treatment, the numbers of live, moribund and dead adults were counted. One live treated male and one live treated female were placed together in a copulation cage, which was a 300 mL clear plastic cup covered with nylon screen supplied with an adult diet source of 10% sucrose solution.
Each pair of virgin adults was a replicate, and each treatment consisted of 10 to 20 replicates. Every day each pair of moths was moved to a new cup supplied with a diet of 10% sucrose solution.
The number of eggs laid per female moth was counted daily during the two days when the female moths actively produced viable eggs. The results, listed in Table G, indicate that no meaningful comparative information can be inferred, as the even the Control provided very few eggs per female moth; this indicates a systemic reproduction problem from unknown causes. However, had the Control worked, we expect to see the reproductive performance effects on diamondback moth.

adult thrips = test: Previous study of adult thrips mortality; type: in vivo, Frankliniella occidentalis; conditions: read-out: adult mortality
Text: as §1
Thus, the sub-lethal concentration of Compound 2 was selected to be 10 ppm in the test treatments. Test solutions were prepared by diluting with water to the selected concentration. Treatments included Compound 2 at 10 ppm as well as a control without test compound.

With `CNC(=O)c1cc(C#N)cc(C)c1NC(=O)c1cc(Br)nn1-c1ncccc1Cl` [Compound 2, 3-bromo-1-(3-chloro-2-pyridinyl)-N-[4-cyano-2-methyl-6-[(methylamino)-carbonyl]phenyl]-1H-pyrazole-5-carboxamide] the “living aphids that did not stay on the plant” value ([1]; 4 and 6 ppm, one day after treatment) was 28-48%, the “Living (%)” value ([1]; 4 ppm) was 97.6% and the “On plant (%)” value ([1]; 4 ppm) was 72.0%. For the same compound, the “No. of nymphs (mean ± SE)” value ([1]; 4 ppm, 6 DAT, per adult) was 6.1 ± 0.6 a, the “Living (%)” value ([1]; 6 ppm) was 82.3% and the “On plant (%)” value ([1]; 6 ppm) was 51.1%. For the same compound, the LC20 sub-lethal dose (housefly) was 2 ppm, the “Mean number of neonates per female” value [2] was 16.7 and the mortality at 10 ppm (diamondback moth) was ~20%. For the same compound, the “No. of eggs per female moth” value ([3]; 1 DAT) was 0, the “No. of eggs per female moth” value ([3]; 2 DAT) was 0.2 and the mortality at 10 ppm (adult thrips) was < 50%.

— US20090076092A1, “METHOD FOR DISRUPTING REPRODUCTIVE PERFORMANCE OF ARTHROPODS” (priority 2006, published 2009)
